The numbers were not newly measured in patent publication US7183094B2, “Bacterial mycothiol S-conjugate amidase family” (The Regents of the University of California, priority 1999, dated 2007), which cites them from elsewhere.

In the data set the test system is M. smegmatis mutant blocked in mycothiol production. The conditions noted are these: Newton et al. (1999); cited from earlier work.

Take `CO[C@H]1/C=C/O[C@@]2(C)Oc3c(C)c(O)c4c(O)c(c(/C=N/N5CCN(C)CC5)c(O)c4c3C2=O)NC(=O)/C(C)=C\C=C\[C@H](C)[C@H](O)[C@@H](C)[C@@H](O)[C@@H](C)[C@H](OC(C)=O)[C@@H]1C` [rifampin]: the “increased sensitivity of the mutant” value is on record as 20 fold.
